The values that follow come from ChEMBL document CHEMBL6115034, “Pseudonatural Flavonols as Novel Copper Ionophores for NAFLD Intervention via Synergistic Copper Delivery and Flavonoid Activity” (J Med Chem, 2025).

The source made the active and inactive calls. The rule behind the calls is not given here.

Data set [1] is described as follows: Induction of copper transporting activity in human HeLa cells assessed as fold increase in intracellular copper levels at 2 uM incubated for 4 hrs by ICP-MS analysis. Type of data set: functional.
For data set [2], the system named is Hepatocyte. Briefly: Cytotoxicity against mouse Hepatocyte assessed as cell viability at 0.1 to 5 uM compound administrated as copper complex measured at 24 hrs by MTT assay. Conditions: hepatocytes, dose 0.1-5 µM. The format is toxicity, cell-based. In general terms: Tetrazolium dyes change colour on reduction, which living cells bring about.
Data set [3] has as its system Hepatocyte. As to the kind of experiment: Cytotoxicity against mouse Hepatocyte assessed as cell viability at 0.1 to 5 uM measured at 24 hrs by MTT assay. The format is toxicity, cell-based. Conditions: hepatocytes, dose 0.1-5 µM.
Data set [4] relates to HepG2. As to the kind of experiment: Anti-NAFLD activity in palmitic acid human HepG2 NAFLD cell model assessed as increase in ROS level at 5 uM compound administrated as copper complex measured at 24 hrs by DCFH-DA probe based flow cytometry analysis. The format is functional. In general terms: A flow cytometer gives signals particle by particle.
The subject of data set [5] is HepG2. Briefly: Cytotoxicity against human HepG2 cells assessed as cell viability at 0.1 to 5 uM measured at 24 hrs by MTT assay. Conditions: dose 0.1-5 µM. Type of data set: functional, cell-based.
Data set [6] has as its system HepG2. Briefly: Anti-NAFLD activity in palmitic acid human HepG2 NAFLD cell model assessed as cell viability at 0.1 to 0.5 uM compound administrated as copper complex measured at 24 hrs by MTT assay. The note with it: dose 0.1-0.5 µM. Type of data set: functional, cell-based.
Data set [7] relates to HepG2. As to the kind of experiment: Cytotoxicity against human HepG2 cells assessed as cell viability at 0.1 to 5 uM compound administrated as copper complex measured at 24 hrs by MTT assay. Type of data set: functional, cell-based. Conditions: dose 0.1-5 µM.

For the compound `COc1ccc2oc(-c3ccc4cccc(O)c4n3)c(O)c(=O)c2c1`, the “fold change (FC)” value in data set [1] was about 5. Also, the Activity entry in the data set with Hepatocyte [2] and with Hepatocyte [3] was “Non-toxic” throughout. For the same compound, the outcome in the data set with HepG2 [4], with HepG2 [5], with HepG2 [6] and in the data set with HepG2 [7] was Active.

Consider `O=c1c(O)c(-c2ccc3c(Cl)ccc(O)c3n2)oc2ccccc12`, for which the “fold change (FC)” value in data set [1] is reported as about 5. The Activity result in the data set with Hepatocyte [2] and with Hepatocyte [3] was “Non-toxic” each time. Moreover, the result in the data set on HepG2 [4], with HepG2 [5], in the data set with HepG2 [6] and in the data set with HepG2 [7] was Active.
